Patent US20240327364A1, “THERAPEUTIC TARGETING OF GPR68 TO INDUCE FERROPTOSIS” (University Of Maryland, Baltimore, priority 2023, published 2024)

How the values were obtained:
[1] = biological target: T1, ABL1(T315I)-nonphosphorylated (Homo sapiens, UniProt P00519, T315I); assay: KinomeScan; format: binding; settings: read-out: % Control
T1 construct: purchased DiscoveRx

CSNK1G1 = CSNK1G1 (Homo sapiens, UniProt Q9HCP0); assay: KinomeScan; format: binding; settings: read-out: % Control
DMPK = biological target: T2, DMPK (Homo sapiens, UniProt Q09013); assay: KinomeScan; format: binding; settings: read-out: % Control
T2 construct: purchased DiscoveRx (Fremont, CA), KinomeScan service
T2 sequence (Q09013 whole entry): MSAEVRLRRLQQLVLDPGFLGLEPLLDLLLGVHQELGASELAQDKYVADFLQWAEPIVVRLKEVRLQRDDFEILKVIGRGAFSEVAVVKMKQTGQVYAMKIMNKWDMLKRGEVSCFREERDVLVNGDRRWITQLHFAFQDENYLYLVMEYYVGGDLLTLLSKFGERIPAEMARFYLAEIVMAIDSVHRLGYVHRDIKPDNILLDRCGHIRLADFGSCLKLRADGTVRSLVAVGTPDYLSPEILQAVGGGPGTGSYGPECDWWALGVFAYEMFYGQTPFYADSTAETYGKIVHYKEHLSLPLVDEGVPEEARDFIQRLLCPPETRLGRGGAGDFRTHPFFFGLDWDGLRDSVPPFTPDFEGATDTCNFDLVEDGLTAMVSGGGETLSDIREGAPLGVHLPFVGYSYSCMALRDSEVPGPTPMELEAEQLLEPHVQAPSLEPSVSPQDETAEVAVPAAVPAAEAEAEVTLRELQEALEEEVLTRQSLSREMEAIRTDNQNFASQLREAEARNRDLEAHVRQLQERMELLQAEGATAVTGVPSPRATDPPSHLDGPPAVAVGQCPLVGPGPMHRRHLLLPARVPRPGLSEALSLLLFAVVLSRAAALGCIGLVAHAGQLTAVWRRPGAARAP

JNK3 = biological target: T3, JNK3 (Homo sapiens, UniProt P53779); assay: KinomeScan; format: binding; settings: read-out: % Control
T3 construct: purchased DiscoveRx
T3 sequence (P53779 whole entry): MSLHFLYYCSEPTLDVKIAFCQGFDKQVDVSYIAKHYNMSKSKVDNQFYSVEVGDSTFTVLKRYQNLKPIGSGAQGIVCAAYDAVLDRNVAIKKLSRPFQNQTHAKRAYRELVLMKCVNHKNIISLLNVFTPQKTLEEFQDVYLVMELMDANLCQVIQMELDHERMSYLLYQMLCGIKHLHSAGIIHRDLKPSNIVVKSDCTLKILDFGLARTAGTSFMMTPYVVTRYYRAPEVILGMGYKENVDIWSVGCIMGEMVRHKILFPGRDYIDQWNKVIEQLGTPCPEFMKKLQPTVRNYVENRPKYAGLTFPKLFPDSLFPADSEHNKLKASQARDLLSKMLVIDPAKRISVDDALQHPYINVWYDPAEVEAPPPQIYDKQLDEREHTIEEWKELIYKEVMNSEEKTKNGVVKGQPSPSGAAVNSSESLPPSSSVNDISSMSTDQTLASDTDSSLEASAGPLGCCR

MYLK = biological target: T4, MYLK (Homo sapiens, UniProt Q15746); assay: KinomeScan; format: binding; settings: read-out: % Control
T4 construct: purchased DiscoveRx

NEK3 = biological target: T5, NEK3 (Homo sapiens, UniProt P51956); assay: KinomeScan; format: binding; settings: read-out: % Control
T5 construct: purchased DiscoveRx
T5 sequence (P51956 whole entry): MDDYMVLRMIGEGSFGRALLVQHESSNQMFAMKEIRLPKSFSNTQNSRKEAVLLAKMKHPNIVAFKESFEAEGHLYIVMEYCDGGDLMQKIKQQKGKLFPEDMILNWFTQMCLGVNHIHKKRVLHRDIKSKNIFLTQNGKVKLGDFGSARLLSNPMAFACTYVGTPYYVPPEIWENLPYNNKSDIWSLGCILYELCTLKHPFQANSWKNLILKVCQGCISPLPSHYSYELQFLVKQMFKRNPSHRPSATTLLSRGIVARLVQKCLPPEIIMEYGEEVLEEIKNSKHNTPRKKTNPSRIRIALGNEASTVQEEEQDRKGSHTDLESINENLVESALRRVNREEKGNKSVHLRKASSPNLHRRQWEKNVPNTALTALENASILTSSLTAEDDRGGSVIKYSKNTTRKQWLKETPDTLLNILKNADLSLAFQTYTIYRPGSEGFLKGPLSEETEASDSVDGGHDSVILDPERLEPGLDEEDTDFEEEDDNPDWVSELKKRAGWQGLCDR

PIK4CB = biological target: T6, PIK4CB (Homo sapiens, UniProt Q9UBF8); assay: KinomeScan; format: binding; settings: read-out: % Control
T6 construct: purchased DiscoveRx (Fremont, CA)
T6 sequence (Q9UBF8 whole entry): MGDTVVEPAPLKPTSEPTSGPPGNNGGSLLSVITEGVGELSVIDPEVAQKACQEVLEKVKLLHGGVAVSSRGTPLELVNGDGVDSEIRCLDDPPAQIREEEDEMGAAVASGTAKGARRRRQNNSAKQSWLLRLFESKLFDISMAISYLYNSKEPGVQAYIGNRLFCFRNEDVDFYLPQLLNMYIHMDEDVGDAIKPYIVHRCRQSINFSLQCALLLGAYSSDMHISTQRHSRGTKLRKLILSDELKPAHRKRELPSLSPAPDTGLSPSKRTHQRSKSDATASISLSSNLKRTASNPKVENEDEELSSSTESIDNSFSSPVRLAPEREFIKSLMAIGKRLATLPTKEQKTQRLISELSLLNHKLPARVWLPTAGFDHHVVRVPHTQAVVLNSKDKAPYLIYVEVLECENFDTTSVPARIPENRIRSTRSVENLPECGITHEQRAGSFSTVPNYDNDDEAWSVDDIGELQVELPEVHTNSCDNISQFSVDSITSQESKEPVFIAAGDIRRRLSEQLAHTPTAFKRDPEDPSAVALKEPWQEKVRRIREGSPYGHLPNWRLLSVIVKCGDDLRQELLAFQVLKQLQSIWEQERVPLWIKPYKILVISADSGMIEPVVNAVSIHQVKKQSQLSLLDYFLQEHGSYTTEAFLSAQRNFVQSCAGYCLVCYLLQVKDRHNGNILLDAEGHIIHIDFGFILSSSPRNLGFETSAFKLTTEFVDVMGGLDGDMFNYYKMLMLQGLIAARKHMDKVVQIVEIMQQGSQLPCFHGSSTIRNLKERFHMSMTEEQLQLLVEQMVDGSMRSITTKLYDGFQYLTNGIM

RIOK3 = biological target: T7, RIOK3 (Homo sapiens, UniProt O14730); assay: KinomeScan; format: binding; settings: read-out: % Control
T7 construct: purchased DiscoveRx (Fremont, CA)

CCR10 = biological target: T8, CCR10 (Homo sapiens, UniProt P46092); assay: GPCR Profiler; format: cell-based
T8 construct: host or cells: Chem-1 cells with Gα15
T8 sequence (P46092 whole entry): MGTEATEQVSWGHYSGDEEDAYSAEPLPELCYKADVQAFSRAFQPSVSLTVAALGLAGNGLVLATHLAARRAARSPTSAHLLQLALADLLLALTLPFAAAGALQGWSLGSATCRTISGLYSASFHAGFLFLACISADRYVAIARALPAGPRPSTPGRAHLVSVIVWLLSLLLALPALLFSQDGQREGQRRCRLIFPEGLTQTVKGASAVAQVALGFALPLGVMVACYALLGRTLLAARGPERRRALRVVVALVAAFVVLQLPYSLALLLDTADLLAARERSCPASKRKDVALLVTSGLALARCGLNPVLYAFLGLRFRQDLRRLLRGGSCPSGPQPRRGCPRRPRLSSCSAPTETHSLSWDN

CXCR4 = biological target: T9, CXCR4 (Homo sapiens, UniProt P61073); assay: GPCR Profiler; format: cell-based
T9 construct: host or cells: Chem-1 cells with Gα15
T9 sequence (P61073 whole entry, species assumed): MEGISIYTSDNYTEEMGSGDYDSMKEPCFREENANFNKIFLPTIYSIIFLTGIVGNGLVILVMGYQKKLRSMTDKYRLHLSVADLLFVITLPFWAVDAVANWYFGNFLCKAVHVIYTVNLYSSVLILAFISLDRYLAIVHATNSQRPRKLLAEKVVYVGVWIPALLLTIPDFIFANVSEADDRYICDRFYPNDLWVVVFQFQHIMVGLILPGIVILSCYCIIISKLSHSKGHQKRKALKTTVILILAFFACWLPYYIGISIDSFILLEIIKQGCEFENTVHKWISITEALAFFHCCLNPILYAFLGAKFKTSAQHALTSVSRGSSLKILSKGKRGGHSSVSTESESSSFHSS

MRGX1 = biological target: T10, MRGX1 (Homo sapiens, UniProt Q96LB2); assay: GPCR Profiler; format: cell-based
T10 construct: host or cells: Chem-1 cells expressing Gα15
T10 sequence (Q96LB2 whole entry, species assumed): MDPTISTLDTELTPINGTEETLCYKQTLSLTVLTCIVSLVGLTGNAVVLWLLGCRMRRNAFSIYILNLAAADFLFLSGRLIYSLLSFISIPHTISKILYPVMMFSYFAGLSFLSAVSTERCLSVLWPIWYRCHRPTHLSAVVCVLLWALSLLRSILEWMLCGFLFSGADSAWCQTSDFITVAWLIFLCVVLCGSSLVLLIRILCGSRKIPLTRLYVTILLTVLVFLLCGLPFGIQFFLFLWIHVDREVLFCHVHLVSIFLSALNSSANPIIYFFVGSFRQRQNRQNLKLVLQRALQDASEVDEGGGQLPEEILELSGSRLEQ

P2Y12 = biological target: T11, P2Y12 (Homo sapiens, UniProt Q9H244); assay: GPCR Profiler; format: cell-based
T11 construct: host or cells: Chem-1 cells expressing Gα15
T11 sequence (Q9H244 whole entry, species assumed): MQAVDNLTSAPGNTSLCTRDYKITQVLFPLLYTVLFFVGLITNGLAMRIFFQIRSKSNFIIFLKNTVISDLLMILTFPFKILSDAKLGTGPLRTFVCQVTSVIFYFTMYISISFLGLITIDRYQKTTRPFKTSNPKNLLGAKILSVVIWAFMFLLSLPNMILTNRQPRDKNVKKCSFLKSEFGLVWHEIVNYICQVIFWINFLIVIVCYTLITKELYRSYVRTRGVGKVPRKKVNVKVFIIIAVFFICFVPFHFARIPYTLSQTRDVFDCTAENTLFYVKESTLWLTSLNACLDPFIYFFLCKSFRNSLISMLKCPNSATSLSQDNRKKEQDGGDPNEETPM

Y4 = biological target: T12, Y4 (Homo sapiens, UniProt P50391); assay: GPCR Profiler; format: cell-based
T12 construct: host or cells: Chem-1 cells expressing Galpha15
T12 sequence (P50391 whole entry): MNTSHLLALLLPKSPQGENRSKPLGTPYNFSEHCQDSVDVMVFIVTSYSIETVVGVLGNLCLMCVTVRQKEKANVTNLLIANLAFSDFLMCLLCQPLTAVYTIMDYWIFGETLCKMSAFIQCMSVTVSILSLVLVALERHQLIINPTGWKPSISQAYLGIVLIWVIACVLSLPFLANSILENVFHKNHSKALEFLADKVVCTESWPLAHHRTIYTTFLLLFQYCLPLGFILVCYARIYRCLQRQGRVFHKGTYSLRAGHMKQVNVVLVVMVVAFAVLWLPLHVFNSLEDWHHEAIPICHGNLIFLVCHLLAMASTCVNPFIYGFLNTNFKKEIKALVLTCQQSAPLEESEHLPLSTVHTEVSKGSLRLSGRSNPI

Hep G2 = assay: Cell Titer-Glo viability, Hepatocellular cancer; format: cell-based
Method: OGM2 kills wide variety of cancer cell types. Cell sensitivity can be classified in to Very Sensitive (LC50<2 μM), Sensitive (LC50=2 to 10 μM), Mildly Sensitive (LC50>10 μM), and Refractory (no killing at 10 μM). The listed established cell were incubated with OGM2 at 2 μM or 10 μM for 72 hours under standard cell culture conditions, and relative cell number was assessed using Cell Titer-Glo Luminescent Cell Viability Assay (Promega™) following the manufacturer's instructions. Luminescence was determined using a Cytation 5 reader and Gen5 software package (BioTek™).
Cancer cells, which are very sensitive to killing by OGM2 (LCs <2 μM), with reported mRNA expression of GPR68 and the related proton sensing receptor GPR4. LC50's (concentrations causing 50% lethality) were determined using CellTiter-Glo (Promega™, G7570). Cells were plated in 12-well plates (CELLTREAT Scientific Products, 229112) in 1 ml of DMEM with high glucose, GlutaMAX, HEPES, or RPMI 1640 with Penicillin-Streptomycin (ThermoFisher™, 10564029, 11875119 and 15140122) and 10% FBS. Cells were incubated overnight at 37° C. in 5% CO2. Then 1 mL of fresh media was added with DMSO, OGM, or positive control (Erastin; APExBIO Technology, LLC, B1524) and cells incubated for 3 days. On the third day, all media was removed, cells were rinsed with 1×PBS, PBS was removed, and 200 μL of 1× Passive Lysis Buffer (Promega™, E1941) was added to each well. […]. Subsequently, 20 μL of lysate was added to 100 μL CellTiter-Glo™ reagent on a LUMITRAC 200 plate (Greiner™ bio-one, 82050-726). Plates were briefly spun down and read on a GloMax-Multi Detection System (Promega™).
The cells listed in the tables above were incubated with OGM2 at 2 μM or 10 μM for 72 hours under standard cell culture conditions, and relative cell number was assessed using Cell Titer-Glo Luminescent Cell Viability Assay (Promega™) following the manufacturer's instructions. Luminescence was determined using a Cytation 5 reader and Gen5 software package (BioTek™). RNA expression of GPR68 and GPR4 in the corresponding cancer cell lines are listed, according to the publicly available The Human Protein Atlas version 22.0 and Ensembl version 103.38 (see proteinatlas.org). The consensus normalized expression value (“nTPM”=normalize transcript per million) was calculated as the maximum nTPM value for each gene in the two data sources.

U138 spheroids = assay: GBM spheroid assay; format: cell-based, human
Method: One thousand cells per well were plated in an ultra-low attachment, round-bottomed, 96-well plate, and spheroids were allowed to form for 3 days. Wells were then exposed to concentrations of vehicle, OGM2 or TMZ or a combination for 3 days. Spheroids were imaged in brightfield at 10× using z-stacks that were collapsed into z-projections in the Gen5 software using the LionheartFx (BioTek™). Automated measurements of the spheroid area were obtained using Gen5 software.
Tumor spheroid cultures are a more physiological model of tumor growth than typical 2D cell culture. Temozolomide sensitive U87 (FIG. 20A) and Temozolomide insensitive U138 (FIG. 20B) glioblastoma cell lines were plated in low attachment round bottom 96-well plates and allowed to form tumor spheroids for 3 days (T0). At T0, spheroids were imaged using Lionheart™ (HCS) High-Content Imaging Systems (Biotek™) and then were exposed to increasing doses of either Temozolomide or OGM2. After 5 days of treatment the spheroids were imaged again (T5). The size (area) of the spheroids after 5 days of treatment was quantified, and the average size of the spheroids at TO is depicted in red.

endothelial cell (EC) = assay: Acidification-induced endothelial cell dysfunction; format: cell-based
Method: FIG. 34A through FIG. 34C: GPR68 plays a central role in acidification-induced endothelial cell (EC) dysfunction in vitro, and OGM2 abrogates EC dysfunction. […] These effects were abolished by OGM2 (OGM) at 3 uM and augmented by GPR68 positive allosteric modulator Ogerin (Og) at 2 uM. *P<0.05; Mann-Whitney test, n=5. FIG. 34C: Medium acidification reduced transendothelial resistance (TER), indicative of disruption of EC barrier function.

Sequence of CSNK1G1 (Q9HCP0 whole entry): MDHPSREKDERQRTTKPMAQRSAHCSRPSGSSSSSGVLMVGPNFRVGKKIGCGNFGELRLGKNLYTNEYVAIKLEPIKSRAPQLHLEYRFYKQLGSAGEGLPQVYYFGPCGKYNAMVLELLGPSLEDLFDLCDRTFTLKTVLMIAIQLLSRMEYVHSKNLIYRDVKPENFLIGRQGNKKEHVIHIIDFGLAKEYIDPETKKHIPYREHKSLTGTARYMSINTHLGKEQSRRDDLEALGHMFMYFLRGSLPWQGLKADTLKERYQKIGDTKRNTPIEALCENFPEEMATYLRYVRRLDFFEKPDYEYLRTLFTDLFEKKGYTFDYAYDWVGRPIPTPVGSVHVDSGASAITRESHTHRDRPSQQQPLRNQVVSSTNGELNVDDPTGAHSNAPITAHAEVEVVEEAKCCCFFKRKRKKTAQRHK

In the case of `CCc1ccc2c(c1)C1(NN=C(c3cccc4ccccc34)S1)C(=O)N2` (stereo not shown) [OGM1, 5-ethyl-5′-naphthalen-1-ylspiro[1H-indole-3,2′-3H-1,3,4-thiadiazole]-2-one], the remaining binding at 10 µM [1] is reported as 73%, the remaining binding at 10 µM (CSNK1G1) is reported as 82% and the remaining binding at 10 µM (DMPK) is reported as 86%. For the same molecule, the remaining binding at 10 µM (JNK3) was 82%, the remaining binding at 10 µM (MYLK) was 91% and the remaining binding at 10 µM (NEK3) was 71%. It also gave a remaining binding at 10 µM (PIK4CB) of 71%, a remaining binding at 10 µM (RIOK3) of 100% and an Antagonism (CCR10; 10 uM) of −16.7. For the same molecule, the Agonism (CCR10; 12.5 uM) was −0.2, the Antagonism (CXCR4; 10 uM) was −6.9 and the Agonism (CXCR4; 12.5 uM) was 1.5. For the same molecule, the Antagonism (MRGX1; 10 uM) was 2.3, the Agonism (MRGX1; 12.5 uM) was −0.1 and the Antagonism (P2Y12; 10 uM) was −0.3. It also gave an Agonism (P2Y12; 12.5 uM) of 1, an Antagonism (Y4; 10 uM) of −5.5 and an Agonism (Y4; 12.5 uM) of −0.2.
`CCc1ccc2c(c1)C1(NN=C(c3ccccc3)S1)C(=O)N2` (stereo not shown) [OGM2] was tested, and the Class (Hep G2) was “Sensitive (Sensitive (LC50=2 to 10 μM))”, the “% Survival 2 μM OGM” value (Hep G2; 72 hours) was 66.8% and the “% Survival 10 μM OGM” value (Hep G2; 72 hours) was 45.7%. For the same molecule, the CC50 (Hep G2; Homo sapiens, HepG2, 72 hours, read-out: LC50 (the source's name)) was 2 to 10 µM, the “growth of 3D spheroids” value (U138 spheroids) was “significantly decreased the growth of U138 3D spheroids” and the “TER decline caused by low pH (6.5)” value (endothelial cell (EC); GPR4i 5 uM) was “abolished TER decline”. The “acidic media (pH 6.5)-induced TNFα, VCAM1 and ICAM1 expression” value (endothelial cell (EC); OGM2 3 uM, Ogerin 2 uM) was “abolished”.
